# Experimental data from patent US20240383973A1, “METHODS FOR TREATING CALCITONIN GENE-RELATED PEPTIDE (CGRP) - EXPRESSING CANCERS” (The Board of Regents of the University of Oklahoma, priority 2022, published 2024).
# “Also recorded” adds a separate entry of the source.
# Key:
# [1] = test system: Py230 triple negative breast cancer cell line; assay: Py230 tumor transplant in B6 mice, BIBN4096 vs DMSO: tumor growth and tumor mass; assay type: in vivo; details: vs DMSO mock
# Method: (§1) B6 mice were transplanted with Py230 tumor cells in the 4th mammary fat pad. Beginning on Day 28 post-transplant, mice were either injected with the CGRP inhibitor BIBN4096 in DMSO (white) or DMSO alone (black). 63 days post-transplant, tumors were isolated and tumor mass (FIG. 2A) determined. Tumors were digested and the ratio of activated CD44^hi CD43^+CD8 T cells to FoxP3^+ Tregs determined (FIG. 2B). PD-1 expression on tumor-isolated CD8+ T cells was measured by flow cytometry (FIG. 2C). Symbols represent individual mice, composite of two experiments. *p<0.05, **p<0.01.
# B6 mice were transplanted with Py230 triple negative breast cancer cell line, tumors were measured 3×/week for 63 days. BIBN4096 or DMSO vehicle control (mock) were administered 1×/week starting on day 28 over a period of 4 weeks. Tumor masses were measured at day 63. FIG. 10A. Tumor growth curves of BIBN4096 treated B6 mice and mock treated controls. FIG. 10B. Tumor masses of BIBN4096 treated mice and mock treated controls. (n=10/group), Mann-Whitney Test, *p<0.05.
# [2] = test system: tumor infiltrating T cells and B cells; assay: Flow cytometric analysis of tumor-isolated immune cells after BIBN4096 treatment; assay type: in vivo, mice; details: day 63, flow cytometry; vs mock
# Method: as §1
# B6 mice were transplanted with Py230 triple negative breast cancer cell line, tumors were measured 3×/week for 63 days. BIBN4096 or DMSO vehicle control (mock) were administered 1×/week starting on day 28 over a period of 4 weeks. Tumor was passed through a 70 µm cell strainer and single cell suspension was stained for flowcytometric analysis. FIG. 11A. BIBN4096 treated mice have a higher ratio of activated CD8^+ T cells to regulatory T cells (T reg) compared to the mock treated controls. FIG. 11B. […] FIG. 11C. […] FIG. 11D. Tumor infiltrating T cell subtypes at day 63 in BIBN4096 and mock treated controls. (n=15 group) Mann-Whitney Test, *p<0.05, **p<0.01, ****p<0.0001, n.s. not significant.
# [3] = test system: Py230 murine mammary tumors; assay: Anti-CGRP/anti-PD-1 combination treatment effect on tumor volume and tumor regression; assay type: in vivo; details: treatment day 28-56, followed to day 70; 10 mice per group
# Description: The anti-PD-1 compound is a rat IgG2a anti-mouse PD-1 antibody, clone RMP1-14, obtained from Bio X Cell. The CGRP inhibitor is olcegepant. The isotype control is a rat IgG2a, clone 2A3, raised against human CD25, obtained from Bio X Cell.
# Mice were transplanted with Py230 murine mammary tumors in the mammary fat pad. 28 days after tumor implantation the drug treatments were initiated. Treatments were: (1) Mock—isotype control and vehicle control, (2) CGRP inhibitor+isotype control, (3) anti-PD-1+vehicle control, and (4) Combination: CGRP inhibitor+anti-PD-1. Treatments were terminated 56 days after transplantation. The anti-PD-1 compound was a rat IgG2a anti-mouse PD-1 antibody, clone RMP1-14, obtained from Bio X Cell, the CGRP inhibitor was olcegepant, and the isotype control was a rat IgG2a, clone 2A3, raised against human CD25, obtained from Bio X Cell. Tumor volume, as determined by caliper measurement, was measured every other day until day 70 post-transplant. Average tumor mass of 10 individuals across two experiments is depicted (FIG. 4). The results (FIG. 5) also indicated the numbers of mice in the 4 treatment groups that experienced either tumor progression (i.e., continual growth of tumor), tumor stagnation (cessation of growth for at least 3 weeks), or tumor regression (tumor no longer palpable) in each cohort. […]
smiles,measurement,setting,value
"NCCCC[C@H](NC(=O)[C@@H](Cc1cc(Br)c(O)c(Br)c1)NC(=O)N1CCC(N2Cc3ccccc3NC2=O)CC1)C(=O)N1CCN(c2ccncc2)CC1 [BIBN4096, Olcegepant]",tumor growth,"[1]; B6 mice, Py230, BIBN4096 1x/week from day 28 for 4 weeks, tumors measured for 63 days",inhibits tumor growth; also recorded: stops growth of triple negative breast cancer
same,tumor mass,[1]; day 63 post-transplant,decreases tumor mass
same,PD-1 expression on activated CD8+ T cells from tumor,[2],increased expression
same,ratio of activated CD8+ T cells to regulatory T cells (Treg) in tumor,[2],higher ratio
same,tumor infiltrating B cells,[2],increased infiltration; also recorded: enhances CD8+ T cell activation and tumor infiltrating B cells
same,"tumor progression (continual growth of tumor), share of tumors",[3],most tumors continued to progress
same,"tumor stagnation (cessation of growth for at least 3 weeks), share of tumors",[3],30%
